Assay results from PubChem BioAssay (NCI).
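Assay format: 96-well plates, 48-hour exposure. GI50: concentration for 50% inhibition of growth. TGI: concentration producing complete growth inhibition.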

Key:
Test in all cases: NCI anticancer screen, dose series, 48 h
[1] = system: U251 CNS
[2] = system: MALME-3M melanoma
[3] = system: A549 NSCLC
[4] = system: HOP-62 NSCLC
[5] = system: IGROV1 ovarian
[6] = system: UACC-257 melanoma
[7] = system: NCI-H522 lung
[8] = system: NCI-H23 lung
[9] = system: HCC-2998 colon
[10] = system: NCI/ADR-RES ovarian

Compound | TGI [1] [µM] | TGI [2] [µM] | TGI [3] [µM] | TGI [4] [µM] | TGI [5] [µM] | TGI [6] [µM] | TGI [7] [µM] | TGI [8] [µM] | TGI [9] [µM] | GI50 [1] [µM] | GI50 [10] [µM] | TGI [10] [µM] | GI50 [3] [µM] | GI50 [5] [µM] | GI50 [9] [µM] | GI50 [6] [µM] | GI50 [7] [µM] | GI50 [8] [µM] | GI50 [2] [µM] | GI50 [4] [µM]
COc1c(O)c2c(=O)cc3c4c5c(cc(=O)c6c(O)c(OC)c(CC(C)O)c(c(c1CC(C)O)c24)c65)OCO3 (configuration not stated) | 4.08 | 1.27 | 8.39 | 4.01 | 4.63 | 2.78 | 4.38 | 3.1 | – | – | – | – | – | – | – | – | – | – | – | –
Cc1ccc(C)c(NC(=O)c2cccc([N+](=O)[O-])c2O)c1 | > 100 | 81.6 | > 100 | 47.1 | > 100 | 63 | 67.2 | 49 | > 100 | – | – | – | – | – | – | – | – | – | – | –
O=[N+]([O-])c1ccc2occ3c2c1CCC3 | > 100 | > 100 | > 100 | > 100 | > 100 | > 100 | > 100 | > 100 | > 100 | – | – | – | – | – | – | – | – | – | – | –
N#CC(C(=O)/C(=N\NC(N)=O)C(C#N)c1ccc(Cl)cc1)c1ccc(Cl)cc1 (configuration not stated) | > 100 | > 100 | > 100 | > 100 | > 100 | > 100 | > 100 | > 100 | – | – | – | – | – | – | – | – | – | – | – | –
O=C(Nc1cccc(Cl)c1)C(=O)C(C(=O)c1ccc2ccccc2c1)C1OC(=O)c2ccccc21 (configuration not stated) | 21.2 | 30.8 | > 100 | 37.3 | 96.3 | 55.5 | – | 24.8 | 21.8 | – | – | – | – | – | – | – | – | – | – | –
N#C/C(=C\c1ccc2ccccc2c1)C(=O)c1ccccc1 | 32.9 | > 100 | > 100 | 51.4 | > 100 | > 100 | > 100 | > 74.4 | > 100 | – | – | – | – | – | – | – | – | – | – | –
NC1CCN(Cc2ccccc2)CC1 | > 100 | – | > 100 | – | > 100 | > 100 | > 100 | > 100 | > 100 | > 100 | > 100 | > 100 | > 100 | 94.6 | > 100 | > 100 | > 100 | > 100 | – | –
Nc1ncn([C@@H]2O[C@H](CO)[C@@H](O)[C@H]2O)c(=O)n1 | – | 25.3 | > 100 | 2.67 | – | – | 5.84 | 41.1 | 5.55 | – | 1.2 | 10.6 | 1.03 | – | 0.636 | – | 1.29 | 3.91 | 3.65 | 0.49
COc1cnc2c(c1)C(=O)c1c-2n(CCCNC2=NCCS2)c(=O)c2cc([N+](=O)[O-])ccc12 | – | – | – | – | – | 3.28 | – | – | 2.45 | – | – | – | – | – | 1.03 | 0.575 | – | – | – | –
Cc1ccccc1C(=O)c1cc(O)ccc1O | > 100 | > 100 | > 100 | > 100 | > 100 | > 100 | 99.1 | > 100 | > 100 | – | – | – | – | – | – | – | – | – | – | –
NC(N)=NCCCC(=O)O | > 100 | > 100 | > 100 | > 100 | > 100 | – | > 100 | > 100 | – | – | – | > 100 | – | – | – | – | – | – | – | –
